Assay results: patent publication US10676479B2, “Imidazolepyridine compounds and uses thereof” (Novartis AG, priority 2016, dated 2020)
Read-outs that look alike come from different tables or passages of the source.

Columns and labels:
[1] = molecular target: wild type PRC2 (wtPRC2) complex (Homo sapiens (Human), UniProt O75530); experiment: EED LC-MS assay; assay type: biochemical
Protocol: EED LC-MS Assay Representative compounds of the present invention were serially and separately diluted 3-fold in DMSO to obtain a total of eight or twelve concentrations. […] A 6 μL solution of 3 μM of the peptide substrate H3K27Me0 (histone H3[21-44]-biotin) in reaction buffer was added to initiate each reaction. […] The data were then fit to a dose response equation using the program Helios to get the IC50 values of the test compound.

EED (1-441)-His protein = EED (1-441)-His protein (Homo sapiens (Human), UniProt O75530); experiment: EED-H3K27Me3 peptide competition binding assay by AlphaScreen; conditions: EED Alphascreen binding Qualified assay
[2] = system: H3K27 methylation in G401 cell; experiment: ELISA (H3K27 methylation) assay; assay type: cell-based; conditions: Homo sapiens, G-401, ELISA Qualified assay, 48 h, read-out: (c) IC50
Summary of the method: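 G401 cells given 3-fold serial dilutions (eight or twelve points, top 20 μM) for 48 h. Lysate ELISA for H3K27 methylation normalized to H3 signal, % inhibition versus DMSO, IC50 from dose-response fit.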

[3] = EED LC-MS Qualified assay, read-out: (b) IC50

Chain of EED (1-441)-His protein (O75530 whole entry): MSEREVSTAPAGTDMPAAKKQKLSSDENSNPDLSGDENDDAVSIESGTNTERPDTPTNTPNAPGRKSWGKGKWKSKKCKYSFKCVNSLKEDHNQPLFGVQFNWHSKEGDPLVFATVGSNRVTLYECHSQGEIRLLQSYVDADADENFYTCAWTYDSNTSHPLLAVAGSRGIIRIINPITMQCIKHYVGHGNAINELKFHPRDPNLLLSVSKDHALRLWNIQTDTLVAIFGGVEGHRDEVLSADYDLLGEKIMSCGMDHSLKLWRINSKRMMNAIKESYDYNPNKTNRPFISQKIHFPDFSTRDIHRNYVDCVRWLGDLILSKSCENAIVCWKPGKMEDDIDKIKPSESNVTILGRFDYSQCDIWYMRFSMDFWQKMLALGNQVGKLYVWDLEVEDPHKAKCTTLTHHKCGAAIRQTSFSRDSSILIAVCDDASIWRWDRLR
Chain of wild type PRC2 (wtPRC2) complex (O75530 whole entry): as above
Chain of wild type PRC2 (wtPRC2) complex (Q15910 whole entry partner): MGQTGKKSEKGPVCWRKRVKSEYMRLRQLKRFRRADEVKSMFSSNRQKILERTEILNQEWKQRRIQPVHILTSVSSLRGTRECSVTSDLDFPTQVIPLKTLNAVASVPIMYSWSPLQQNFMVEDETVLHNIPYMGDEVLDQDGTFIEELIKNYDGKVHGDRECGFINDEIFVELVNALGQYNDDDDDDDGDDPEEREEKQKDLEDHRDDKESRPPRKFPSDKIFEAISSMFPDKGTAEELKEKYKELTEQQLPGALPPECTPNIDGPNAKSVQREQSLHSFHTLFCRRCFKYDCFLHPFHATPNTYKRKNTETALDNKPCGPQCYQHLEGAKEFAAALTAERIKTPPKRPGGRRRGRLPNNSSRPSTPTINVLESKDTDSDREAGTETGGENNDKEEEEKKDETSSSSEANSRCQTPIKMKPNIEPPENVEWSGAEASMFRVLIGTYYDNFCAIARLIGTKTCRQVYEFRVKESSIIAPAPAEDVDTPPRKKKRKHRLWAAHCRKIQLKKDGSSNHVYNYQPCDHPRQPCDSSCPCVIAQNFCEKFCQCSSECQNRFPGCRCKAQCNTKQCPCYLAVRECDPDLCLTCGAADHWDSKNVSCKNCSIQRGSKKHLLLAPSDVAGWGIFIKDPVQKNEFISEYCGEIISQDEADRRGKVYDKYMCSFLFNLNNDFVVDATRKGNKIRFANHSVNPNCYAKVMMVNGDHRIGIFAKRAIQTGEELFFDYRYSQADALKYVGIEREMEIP
Chain of wild type PRC2 (wtPRC2) complex (Q15022 whole entry partner): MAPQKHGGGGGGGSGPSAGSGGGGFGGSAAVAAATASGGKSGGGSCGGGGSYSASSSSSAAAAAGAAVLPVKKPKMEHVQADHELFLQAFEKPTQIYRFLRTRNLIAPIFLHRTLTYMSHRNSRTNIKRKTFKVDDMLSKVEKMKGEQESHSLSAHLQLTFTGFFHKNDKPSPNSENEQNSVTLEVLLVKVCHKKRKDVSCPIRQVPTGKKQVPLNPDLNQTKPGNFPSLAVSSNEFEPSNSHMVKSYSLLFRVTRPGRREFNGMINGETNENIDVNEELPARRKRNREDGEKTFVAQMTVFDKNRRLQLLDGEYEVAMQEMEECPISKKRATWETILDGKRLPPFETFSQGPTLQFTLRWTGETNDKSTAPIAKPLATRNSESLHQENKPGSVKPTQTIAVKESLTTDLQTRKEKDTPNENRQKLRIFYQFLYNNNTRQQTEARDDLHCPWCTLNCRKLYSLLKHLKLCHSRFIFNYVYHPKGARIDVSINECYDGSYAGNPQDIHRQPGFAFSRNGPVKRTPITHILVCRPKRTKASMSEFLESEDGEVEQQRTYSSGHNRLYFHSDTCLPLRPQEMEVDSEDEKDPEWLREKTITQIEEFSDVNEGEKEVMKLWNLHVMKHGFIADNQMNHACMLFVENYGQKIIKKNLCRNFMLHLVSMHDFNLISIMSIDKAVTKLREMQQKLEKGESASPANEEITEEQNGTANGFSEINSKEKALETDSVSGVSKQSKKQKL

What does the source list for `Fc1ccc2c(c1CNc1ncc(-c3cnccc3C(F)F)c3cncn13)CCO2` [Example 52, 8-(4-(difluoromethyl)pyridin-3-yl)-N-((5-fluoro-2,3-dihydrobenzofuran-4-yl)methyl)imidazo[1,5-c]pyrimidin-5-amine]?
IC50 [1, 3]: 17.8 nM; IC50 (EED (1-441)-His protein): 10.2 nM; IC50 [2]: 42.5 nM

For `Cc1ccc(-c2cnc(NCc3c(F)ccc4c3CCO4)n3cnc(C#N)c23)cn1` [Example 72, 5-(((5-fluoro-2,3-dihydrobenzofuran-4-yl)methyl)amino)-8-(6-methylpyridin-3-yl)imidazo[1,5-c]pyrimidine-1-carbonitrile], which IC50 [1, 3] is on record?
Its IC50 is 20.3 nM.

What about the IC50 (EED (1-441)-His protein) of the same compound?
Its IC50 is 10.8 nM.

What about the IC50 [2] of the same compound?
The IC50 was 22 nM.

How did the IC50 [1, 3] turn out when `Fc1ccc2c(c1CNc1ncc(-c3ccc(CN4CCC4)cc3)c3cncn13)CCO2` [Example 55, 8-(4-(azetidin-1-ylmethyl)phenyl)-N-((5-fluoro-2,3-dihydrobenzofuran-4-yl)methyl)imidazo[1,5-c]pyrimidin-5-amine] was run?
Its IC50 is 13.7 nM.

And the IC50 (EED (1-441)-His protein)?
Its IC50 is 3.3 nM.

And the IC50 [2]?
Its IC50 is 37.4 nM.

`Fc1ccc2c(c1CNc1ncc(-c3ccc(C(F)F)nc3)c3cncn13)CCO2` [Example 60, 8-(6-(difluoromethyl)pyridin-3-yl)-N-((5-fluoro-2,3-dihydrobenzofuran-4-yl)methyl)imidazo[1,5-c]pyrimidin-5-amine] was tested. Which IC50 [1, 3] did it give?
Its IC50 is 11.3 nM.

What about the IC50 (EED (1-441)-His protein) of the same compound?
The IC50 was 15.3 nM.

And the IC50 [2]?
Its IC50 is 52.1 nM.

Which results are given for `CCS(=O)(=O)c1ncn2c(NCc3c(F)ccc4c3CCO4)ncc(-c3cnc(C)nc3C)c12` [Example 104, 8-(2,4-dimethylpyrimidin-5-yl)-1-(ethylsulfonyl)-N-((5-fluoro-2,3-dihydrobenzofuran-4-yl)methyl)imidazo[1,5-c]pyrimidin-5-amine]?
IC50 [1, 3]: 10.5 nM; IC50 (EED (1-441)-His protein): 3 nM; IC50 [2]: 2.1 nM

With `Cc1ncccc1-c1cnc(NCc2c(F)ccc3c2CCO3)n2cnc(C#C[Si](C)(C)C)c12` [Example 116, N-((5-fluoro-2,3-dihydrobenzofuran-4-yl)methyl)-8-(2-methylpyridin-3-yl)-1-((trimethylsilyl)ethynyl)imidazo[1,5-c]pyrimidin-5-amine] as the compound, how does the IC50 [1] read?
Its IC50 is 8.7 nM.

And the IC50 (EED (1-441)-His protein)?
Its IC50 is 8.3 nM.

And the IC50 [2]?
The IC50 was 90 nM.

For `Fc1cc(-c2cnc(NCc3c(F)ccc4c3CCO4)n3cncc23)ccn1` [Example 35, N-((5-fluoro-2,3-dihydrobenzofuran-4-yl)methyl)-8-(2-fluoropyridin-4-yl)imidazo[1,5-c]pyrimidin-5-amine], which IC50 [1, 3] is on record?
Its IC50 is 26 nM.

And the IC50 (EED (1-441)-His protein)?
Its IC50 is 15.5 nM.

What about the IC50 [2] of the same compound?
Its IC50 is 74.4 nM.

For `Cc1nn(CCO)c(C)c1-c1cnc(NCc2c(F)ccc3c2CCO3)n2cnc(C#N)c12` [Example 88, 5-(((5-fluoro-2,3-dihydrobenzofuran-4-yl)methyl)amino)-8-(1-(2-hydroxyethyl)-3,5-dimethyl-1H-pyrazol-4-yl)imidazo[1,5-c]pyrimidine-1-carbonitrile], which IC50 [1, 3] is on record?
Its IC50 is 11.7 nM.

What about the IC50 (EED (1-441)-His protein) of the same compound?
The IC50 was 3.4 nM.

What about the IC50 [2] of the same compound?
The IC50 was 13 nM.

Which results are given for `O=C(c1ccc(-c2cnc(NCc3c(F)ccc4c3CCO4)n3cncc23)cc1)N1CCCC1` [Example 37, (4-(5-(((5-fluoro-2,3-dihydrobenzofuran-4-yl)methyl)amino)imidazo[1,5-c]pyrimidin-8-yl)phenyl)(pyrrolidin-1-yl)methanone]?
IC50 [1, 3]: 41.9 nM; IC50 (EED (1-441)-His protein): 16.2 nM; IC50 [2]: 81.9 nM

Which results are given for `Cc1ncc(-c2cnc(NCc3c(F)ccc4c3CCO4)n3cnc(S(=O)(=O)c4ccccc4)c23)c(C)n1` [Example 15, 8-(2,4-dimethylpyrimidin-5-yl)-N-((5-fluoro-2,3-dihydrobenzofuran-4-yl)methyl)-1-(phenylsulfonyl)imidazo[1,5-c]pyrimidin-5-amine]?
IC50 [1, 3]: 29.8 nM; IC50 (EED (1-441)-His protein): 15.2 nM; IC50 [2]: 7.8 nM

Which IC50 [1, 3] does the source give for `Cc1cc(-c2cnc(NCc3c(F)ccc4c3CCO4)n3cncc23)ccc1S(C)(=O)=O` [Example 48, N-((5-fluoro-2,3-dihydrobenzofuran-4-yl)methyl)-8-(3-methyl-4-(methylsulfonyl)phenyl)imidazo[1,5-c]pyrimidin-5-amine] here?
The IC50 was 16.4 nM.

What about the IC50 (EED (1-441)-His protein) of the same compound?
The IC50 was 10.5 nM.

What about the IC50 [2] of the same compound?
The IC50 was 34.1 nM.

For `CC(C)Oc1ccc(-c2ncn3c(NCc4c(F)ccc5c4CCO5)ncc(-c4ccc(S(C)(=O)=O)cc4)c23)cc1` [Example 117, N-((5-fluoro-2,3-dihydrobenzofuran-4-yl)methyl)-1-(4-isopropoxyphenyl)-8-(4-(methylsulfonyl)phenyl)imidazo[1,5-c]pyrimidin-5-amine], which IC50 [1, 3] is on record?
Its IC50 is 19.5 nM.

What about the IC50 (EED (1-441)-His protein) of the same compound?
The IC50 was 11.4 nM.

What about the IC50 [2] of the same compound?
Its IC50 is 58.5 nM.

For `CS(=O)(=O)c1ccc(-c2cnc(NCc3c(F)ccc4c3CCO4)n3cnc(-c4ncco4)c23)cc1` [Example 118, N-((5-fluoro-2,3-dihydrobenzofuran-4-yl)methyl)-8-(4-(methylsulfonyl)phenyl)-1-(oxazol-2-yl)imidazo[1,5-c]pyrimidin-5-amine], which IC50 [1, 3] is on record?
The IC50 was 5.5 nM.

And the IC50 (EED (1-441)-His protein)?
The IC50 was 4.8 nM.

And the IC50 [2]?
The IC50 was 2.6 nM.

How did the IC50 [1, 3] turn out when `Cc1ccc(-c2ncn3c(NCc4c(F)ccc5c4CCO5)ncc(-c4cccnc4C)c23)cn1` [Example 115, N-((5-fluoro-2,3-dihydrobenzofuran-4-yl)methyl)-8-(2-methylpyridin-3-yl)-1-(6-methylpyridin-3-yl)imidazo[1,5-c]pyrimidin-5-amine] was run?
Its IC50 is 17.6 nM.

And the IC50 (EED (1-441)-His protein)?
The IC50 was 6.2 nM.

What about the IC50 [2] of the same compound?
Its IC50 is 4 nM.

What does the source list for `Cc1cc(C(=O)N(C)C)ncc1-c1cnc(NCc2c(F)ccc3c2CCO3)n2cncc12` [Example 54, 5-(5-(((5-fluoro-2,3-dihydrobenzofuran-4-yl)methyl)amino)imidazo[1,5-c]pyrimidin-8-yl)-N,N,4-trimethylpicolinamide]?
IC50 [1, 3]: 12.6 nM; IC50 (EED (1-441)-His protein): 4.4 nM; IC50 [2]: 8.1 nM

`Cc1cc(-c2cnc(NCc3c(F)ccc4c3CCO4)n3cncc23)ccn1` [Example 24, N-((5-fluoro-2,3-dihydrobenzofuran-4-yl)methyl)-8-(2-methylpyridin-4-yl)imidazo[1,5-c]pyrimidin-5-amine] was tested. Which IC50 [1, 3] did it give?
Its IC50 is 26.5 nM.

What about the IC50 (EED (1-441)-His protein) of the same compound?
The IC50 was 20.9 nM.

What about the IC50 [2] of the same compound?
Its IC50 is 52.1 nM.

For `CN(C)Cc1ccc(-c2cnc(NCc3c(F)ccc4occc34)n3cncc23)cc1` [Example 67, 8-(4-((dimethylamino)methyl)phenyl)-N-((5-fluorobenzofuran-4-yl)methyl)imidazo[1,5-c]pyrimidin-5-amine], which IC50 [1, 3] is on record?
The IC50 was 70.3 nM.

And the IC50 (EED (1-441)-His protein)?
Its IC50 is 57.6 nM.

What about the IC50 [2] of the same compound?
The IC50 was 350 nM.

Which results are given for `CCOC(=O)c1ncn2c(NCc3c(F)cccc3OC)ncc(-c3cccnc3C)c12` [Example 99, ethyl 5-((2-fluoro-6-methoxybenzyl)amino)-8-(2-methylpyridin-3-yl)imidazo[1,5-c]pyrimidine-1-carboxylate]?
IC50 [1, 3]: 14.6 nM; IC50 (EED (1-441)-His protein): 16 nM; IC50 [2]: 68.6 nM

Which results are given for `Cn1nccc1-c1cnc(NCc2c(F)ccc3c2CCO3)n2cncc12` [Example 33, N-((5-fluoro-2,3-dihydrobenzofuran-4-yl)methyl)-8-(1-methyl-1H-pyrazol-5-yl)imidazo[1,5-c]pyrimidin-5-amine]?
IC50 [1, 3]: 15.9 nM; IC50 (EED (1-441)-His protein): 7.5 nM; IC50 [2]: 22.1 nM

How did the IC50 [1, 3] turn out when `Cc1ncccc1-c1cnc(NCc2c(F)ccc3c2CCO3)n2cnc(C(=O)N(C)C)c12` [Example 105, 5-(((5-fluoro-2,3-dihydrobenzofuran-4-yl)methyl)amino)-N,N-dimethyl-8-(2-methylpyridin-3-yl)imidazo[1,5-c]pyrimidine-1-carboxamide] was run?
The IC50 was 30.4 nM.

And the IC50 (EED (1-441)-His protein)?
Its IC50 is 10.8 nM.

What about the IC50 [2] of the same compound?
The IC50 was 40.1 nM.

Which results are given for `c1cc(CNc2ncc(-c3ccncc3)c3cncn23)c2ccoc2c1` [Example 65, N-(benzofuran-4-ylmethyl)-8-(pyridin-4-yl)imidazo[1,5-c]pyrimidin-5-amine]?
IC50 [1, 3]: 93.2 nM; IC50 (EED (1-441)-His protein): 285 nM; IC50 [2]: 641 nM

With `Fc1ccc2c(c1CNc1ncc(-c3cccnc3)c3cncn13)CCO2` [Example 28, N-((5-fluoro-2,3-dihydrobenzofuran-4-yl)methyl)-8-(pyridin-3-yl)imidazo[1,5-c]pyrimidin-5-amine] as the compound, how does the IC50 [1, 3] read?
Its IC50 is 21.8 nM.

And the IC50 (EED (1-441)-His protein)?
The IC50 was 19.9 nM.

What about the IC50 [2] of the same compound?
Its IC50 is 50.6 nM.

Which IC50 [1, 3] does the source give for `Cc1ncccc1-c1cnc(NCc2c(F)ccc3c2CCO3)n2cnc(C(=O)NN)c12` [Example 108, 5-(((5-fluoro-2,3-dihydrobenzofuran-4-yl)methyl)amino)-8-(2-methylpyridin-3-yl)imidazo[1,5-c]pyrimidine-1-carbohydrazide] here?
Its IC50 is 13.6 nM.

And the IC50 (EED (1-441)-His protein)?
The IC50 was 7 nM.

And the IC50 [2]?
The IC50 was 13.1 nM.

`Cc1ccc(-c2cnc(NCc3c(F)ccc4c3CCO4)n3cnc(C#N)c23)c(C)n1` [Example 75, 8-(2,6-dimethylpyridin-3-yl)-5-(((5-fluoro-2,3-dihydrobenzofuran-4-yl)methyl)amino)imidazo[1,5-c]pyrimidine-1-carbonitrile] was tested. Which IC50 [1, 3] did it give?
The IC50 was 16.7 nM.

And the IC50 (EED (1-441)-His protein)?
The IC50 was 8.4 nM.

And the IC50 [2]?
The IC50 was 45.5 nM.

For `CS(=O)(=O)c1ncn2c(NCc3c(F)ccc4c3CCO4)ncc(-c3cccnc3C(F)F)c12` [Example 13, 8-(2-(Difluoromethyl)pyridin-3-yl)-N-((5-fluoro-2,3-dihydrobenzofuran-4-yl)methyl)-1-(methylsulfonyl)imidazo[1,5-c]pyrimidin-5-amine], which IC50 [1, 3] is on record?
The IC50 was 7.7 nM.

What about the IC50 (EED (1-441)-His protein) of the same compound?
Its IC50 is 3.7 nM.

What about the IC50 [2] of the same compound?
Its IC50 is 2.3 nM.

Which IC50 [1, 3] does the source give for `Cc1nc(C(F)F)ccc1-c1cnc(NCc2c(F)ccc3c2CCO3)n2cncc12` [Example 57, 8-(6-(difluoromethyl)-2-methylpyridin-3-yl)-N-((5-fluoro-2,3-dihydrobenzofuran-4-yl)methyl)imidazo[1,5-c]pyrimidin-5-amine] here?
The IC50 was 12.5 nM.

What about the IC50 (EED (1-441)-His protein) of the same compound?
The IC50 was 7.5 nM.

What about the IC50 [2] of the same compound?
The IC50 was 54.1 nM.

`Cc1c(-c2cnc(NCc3c(F)ccc4c3CCO4)n3cncc23)ccnc1CF` [Example 58, N-((5-fluoro-2,3-dihydrobenzofuran-4-yl)methyl)-8-(2-(fluoromethyl)-3-methylpyridin-4-yl)imidazo[1,5-c]pyrimidin-5-amine] was tested. Which IC50 [1, 3] did it give?
The IC50 was 25.2 nM.

What about the IC50 (EED (1-441)-His protein) of the same compound?
Its IC50 is 14.9 nM.

What about the IC50 [2] of the same compound?
The IC50 was 36.1 nM.
